Data as given in patent US10725042B2, “Methods of diagnosing and treating cancer” (Case Western Reserve University, priority 2012, dated 2020).
pIC50: −log10 of the molar value.

Legend:
H1975 cells = assay: Colony survival assay, H1975 parental cells; assay type: cell-based; conditions: Homo sapiens, NCI-H1975, read-out: pemetrexed IC50
Description: For cells in suspension, colony survival was determined by crystal violet staining of colonies formed after 10-day exposure of 5×10^3 cells to pemetrexed in soft agar. For adherent cells, colony survival was determined by methylene blue staining of colonies formed after 10-day exposure of 100 cells to pemetrexed in 6-well culture dishes. Only colonies containing ≥50 cells were counted. Data points represent percent of colonies relative to untreated control averaged over 3 experiments.

H1975 66 shUNG tumors = assay: H1975 66 shUNG xenografts in NOD-SCID mice; assay type: in vivo
Description: Tumor cells in early passage (5×10^6) were injected into bilateral flanks of female NODSCID mice (6 weeks old). When tumor volumes reached 100 mm3, mice were divided into control (n=4) and treatment (n=6) groups. Mice bearing tumors were treated with pemetrexed (150 mg/kg) or 100 μl sterile PBS (control) by daily intraperitoneal injection (IP) for 5 consecutive days. Tumor measurements were taken every 2 days and response was quantified by tumor volume.

H460 xenografts = assay: H460 xenograft tumors in nude mice; assay type: in vivo; conditions: pemetrexed 150 mg/kg, MX 4 mg/kg, i.p. daily for 5 days
Description: H460 or A549 tumor cells (5×10^6) were injected into bilateral flanks of female athymic NCr (nu/nu) mice (6 weeks old). When the tumor volumes reached 100-150 mm3, mice were divided into control and treatment groups (6-9 mice/group). Nude mice carrying tumors were treated with pemetrexed (150 mg/kg) alone, MX (4 mg/kg) alone or the combination of the two agents, by daily intraperitonial injection (i.p.) for 5 consecutive days. Tumor measurements were taken every 2 days. Tumor responses were quantified by tumor volume.

[1] = tested on: UNG expression in H460 cells; assay: UNG protein and transcript expression after acute pemetrexed exposure, H460; assay type: cell-based, human; conditions: acute pemetrexed exposure 0-200 nM
Description: Protein extracts (25 μg) were resolved by SDS-PAGE and transferred to PVDF membrane (Millipore). Non-specific binding sites were blocked in 5% milk in PBST (1×PBS+0.1% Tween-20). Incubation with primary antibody at 4° C. in 5% BSA/PBS was followed by incubation with HRP-conjugated secondary antibody in 2.5% milk in PBST. Proteins were visualized with ECL reagent (Amersham Corp). Chromatinbound proteins were extracted from formaldehyde (1%) cross-linked cells using Pierce Chromatin Prep Module (Thermo Pierce). Antibody sources: UNG-23936 (39 kDa band, nuclear UNG) and PCNA (Abcam); Tubulin (Calbiochem); γH2AX and Histone-H3 (Millipore); Cleaved PARP (Cell Signaling); and p-chk1, chk1, cdc2, and p-cdc2 (Santa Cruz).
Lung cancer cDNA microarray was purchased from Origene. For cell lines, total RNA was extracted from cells using RNAqueous-4PCR kit (Ambion, Austin, Tex.). Random hexamers (Invitrogen) were used to PCR amplify cDNA from 1 μg of RNA extract. TaqMAN MGB probes (FAMTM dye labeled, Applied Biosystems) for nuclear UNG (UNG2), SMUG1, MBD4, TDG, TYMS and βPol amplified cDNA using 40 cycles of PCR in an ABI 7500 Fast Real-Time PCR System (Applied Biosystems, Foster City, Calif.). Target quantification was achieved after normalization to β-actin amplification as an endogenous control and is presented as relative quantification (RQ) values or log-mean RQ values.

UDG−/− cells = assay: Replication foci stained with CldU and IdU, UDG−/− cells; assay type: cell-based, human; conditions: pemetrexed 25 nM, n=10 cells
Description: DNA replication sites were visualized by incorporation of chlorodeoxyuridine (CldU) and iododeoxyuridine (IdU) into DNA. UDG^−/− and UDG^+/+ cells were labeled with 100 μM CldU (ICN, Irvine, Calif.) or IdU (Sigma Chemical Co., St. Louis, Mo.) for 45 min at different time intervals. Cells were washed with PBS, fixed with cold 70% ethanol, and stored at 4° C. For antibody staining, the ethanol was removed, and 100% methanol was added for 5 min. Cells were washed twice with PBS and incubated with 1.5 M HCl for 30 min to denature the DNA. Cells were washed with PBS, permeabilized with 0.5% Tween 20 in PBS for 5 min, and then incubated in 5% BSA (Sigma Chemical Co.) and in PBS for 20 min to reduce nonspecific binding. Primary antibodies CldU (rat anti-BrdU; Accurate Chemical and Science Co., Westbury, N.Y.) and IdU (mouse anti-BrdU; BD Biosciences) were diluted in 1% BSA buffer, added to the slides, and incubated in a humid environment for 2 hrs. Slides were washed with PBS-Tween 20 and then in a high-salt buffer (200 mM NaCl, 0.2% Tween 20, and 0.2% NP-40 in PBS) for 15 min. The samples were incubated with secondary antibodies for 1 h. Finally, slides were washed with PBSTween 20, mounted with Vectashield antifade mounting medium (Vector Laboratories, Inc., Burlingame, Calif.), and stored at 4° C. […] Fluorescence density of CldU or IdU was quantified by NIH image J software.

[2] = treatment of lung cancer; cited from earlier work
DLD1/UDG−/− cells = assay: Cell cycle analysis, UDG−/− cells; assay type: cell-based, human; conditions: pemetrexed 25 nM
Description: For cell cycle analysis, 10^6 cells (DLD1/UDG^+/+ and DLD1/UDG^−/−) were plated in 100-mm tissue culture dishes and exposed to pemetrexed (25 nM). After 6, 24 and 72 h of culture, cells were fixed with 80% methanol and washed with ice-cold 1% BSA/PBS. DNA was stained with 20 μg/mL propidium iodide (Sigma-Aldrich) and 2.5 μg/mL of DNase-free RNase A (Roche). The DNA fluorescence of propidium iodide-stained cells was measured with an Elite ESP flow cytometer/cell sorter (Coulter, Miami, Fla.).

Nc1nc2[nH]cc(CCc3ccc(C(=O)N[C@@H](CCC(=O)O)C(=O)O)cc3)c2c(=O)[nH]1 [pemetrexed]
pIC50 (H1975 cells): 6.11 | tumors smaller than untreated controls (H1975 66 shUNG tumors; H1975 66 shUNG tumors, day 20, pemetrexed 150 mg/kg IP x5): 55.6% | tumor quadrupling time (H1975 66 shUNG tumors; H1975 shUNG tumors, pemetrexed 150 mg/kg IP, 5 daily injections): 13.67 ± 0.28 days | antitumour activity (H460 xenografts; H460 tumours): moderately sensitive | mean tumour volume (H460 xenografts; H460 xenografts at 15 days, PBS control 2100±106): 1726±176 mm3 | UNG protein and transcript expression [1]: time- and dosedependent induction | ratio of IdU to CldU (fluorescence density) (UDG−/− cells; 6-hr sample): 0.1±0.04 | ratio of IdU to CldU (fluorescence density) (UDG−/− cells; 18-hr sample): 0.01±0.005 | response rate [2]: 30-40% | cells arrested in S-phase (DLD1/UDG−/− cells; 6 hr): ~25% | cells arrested in S-phase (DLD1/UDG−/− cells; 24 hr): 36% | cells in S-phase (DLD1/UDG−/− cells; 72 hr): 35% | cells undergone apoptosis (subG1) (DLD1/UDG−/− cells; 72 hr): ~22%
